The values that follow are results of earlier work, collected in patent US20070003591A1, “USE OF A PROPOLIS AS A COATING MATERIAL FOR MEDICAL IMPLANTS” (priority 2005, published 2007).

SMILES strings stand for the structures.

Data set [1] has as its system transcription factor FKB in human breast cancer cells of the type MCF-7. As to conditions: MCF-7 cells; Watabe et al. 2004.
Data set [2] relates to transcription factor FKB in T cells. The note with it: Márquez et al. 2004.

In the case of `O=C(/C=C/c1ccc(O)c(O)c1)OCCc1ccccc1` [caffeic acid phenylethyl ester], the “inhibitor of the transcription factor FKB” value in data set [1] and in data set [2] was “inhibitor” in each case.
